Data taken from patent US10864168B2, “Bioactive delivery vehicles” (The Regents of the University of California, priority 2014, dated 2020).

Columns and labels:
inactivated yeast = experiment: Encapsulation of bioactives into inactivated yeast cells (conventional diffusion, vacuum infusion, pressure); type: physicochemical, Saccharomyces cerevisiae
Text: Prior to encapsulation of bioactives, selected strains of both yeast and algal cells are inactivated with a chemical treatment. Chemical inactivation of yeast or algal cells stops the metabolic processes while preserving the structure and chemical composition of the cells. […] The concentration of ethanol is selected based on the results of the previous study. Briefly, 1 gm of yeast or algal cells pellet is suspended in the 35% ethanolic solution of the selected bioactive compound. […] We have determined the % ethanol to achieve sufficient encapsulation of the selected encapsulated bioactive compounds using both the vacuum and high pressure assisted encapsulation process. Yeast or algal cell samples suspended in the ethanolic solution with the bioactive compound are sealed in boilable vacuum bags (Prime Source) at 99% vacuum (Ultravac 250, Koch Equipment LLC). […] The sealed samples are covered with aluminum foil to prevent any photo-degradation of the bioactives and incubated at room temperature (25° C.) for 10 minutes. Samples are emptied into 50 mL centrifuge tubes, centrifuged at 2200 rpm for 10 minutes to pellet the cells and the pelleted cells are washed twice with ethanolic solution (35%) and then five times with excess water to remove unencapsulated bioactives. […] Samples are emptied into 50 mL centrifuge tubes, centrifuged to pellet the cells (2200 rpm for 10 minutes) and the pelleted cells are washed twice with ethanolic solution (35%) and then five times with excess water to remove unencapsulated bioactives. Briefly, yeast or algal samples in a 35% ethanolic solution of the selected bioactive compound are covered with a single layer of aluminum foil to prevent photolysis. Samples are then placed into a rotary incubator at 50° C. and 200 rpm for 24 hours. After removal from the incubator, cells are removed by centrifugation at 2000 rpm for 10 minutes. The supernatant is decanted to isolate the pelleted cells and the pelleted cells are washed as described above to remove unencapsulated bioactives. Cells are sonicated to disrupt the cellular structure. A methanol extraction is utilized to extract the encapsulated bioactives from the disrupted yeast or algal cells. 0.05 g of cells (wet basis) with encapsulated bioactives are sonicated to disrupt cellular structure and subsequently incubated with 1 mL methanol. Samples are then briefly vortexed and centrifuged at 14,000 rpm for 10 minutes. The concentration of bioactive compound dissolved in the organic phase is measured using UV-vis spectrophotometer. […] Measuring loading of these bioactive compounds in various emulsions and nanoparticles has been described. The encapsulation efficiency is determined as follows: [formula] where CE is the mass of extracted bioactive from the cells after encapsulation and CT is the amount of bioactive initially added to the cells. We have developed an innovative bioencapsulation process that provides rapid and efficient infusion of bioactives in isolated cells and lipid bodies. In this process, yeast or algal cells incubated in a solution containing bioactive were subjected to a vacuum (97% vacuum) or mild-high hydrostatic pressure (35-100 MPa) for ˜5-10 minutes. […] The results of these measurements were compared with the conventional process used for encapsulation of bioactive compounds in yeast cells.

Chlorella minutissima = experiment: Encapsulation of curcumin in algae cells using pressure assisted encapsulation; type: physicochemical; conditions: vacuum sealing, 5% ethanol, 100 mg cells
Text: (§1) Briefly, 1 gm of yeast or algal cells pellet is suspended in the 35% ethanolic solution of the selected bioactive compound. […] We have determined the % ethanol to achieve sufficient encapsulation of the selected encapsulated bioactive compounds using both the vacuum and high pressure assisted encapsulation process. Yeast or algal cell samples suspended in the ethanolic solution with the bioactive compound are sealed in boilable vacuum bags (Prime Source) at 99% vacuum (Ultravac 250, Koch Equipment LLC). […] The sealed samples are covered with aluminum foil to prevent any photo-degradation of the bioactives and incubated at room temperature (25° C.) for 10 minutes. Samples are emptied into 50 mL centrifuge tubes, centrifuged at 2200 rpm for 10 minutes to pellet the cells and the pelleted cells are washed twice with ethanolic solution (35%) and then five times with excess water to remove unencapsulated bioactives. Cells are sonicated to disrupt the cellular structure. […] The concentration of bioactive compound dissolved in the organic phase is measured using UV-vis spectrophotometer. […] The encapsulation efficiency is determined as follows: [formula] where CE is the mass of extracted bioactive from the cells after encapsulation and CT is the amount of bioactive initially added to the cells. […]

Chlorella sorokiniana = experiment: as above; type: physicochemical; conditions: vacuum sealing, 5% ethanol, 50 mg cells
Text: as §1

E. coli (BL21) = experiment: Encapsulation efficiency into bacteria by vacuum infusion; type: physicochemical; conditions: vacuum infused, 35% ethanol
L. casei (S1) = experiment: as above; type: physicochemical, Lactobacillus casei; conditions: vacuum infused, 35% ethanol
porcine mouth mucosa = experiment: Curcumin release and diffusion in porcine mouth mucosa from yeast encapsulation system
Experimental: Curcumin release and diffusion in porcine mouth mucosa from yeast encapsulation system was evaluated. Yeast microcapsules loaded with curcumin were topically applied on the porcine oral cavity tissue. After incubations for corresponding time periods, curcumin permeation was detected by imaging the tissue cross-sections. Both integrated pixel intensity and penetration distance from skin top surface were calculated. The results are depicted in FIG. 18. […] Furthermore, the yeast carriers can be engineered to act as a programmable microcarrier system that can provide controlled or triggered release of bioactive components in oral mucosa. This engineering can be accomplished by physical, chemical and/or genetic modification of the cell wall and cytoplasmic composition of yeast cells including modification of their lipid content.

Mass of Encapsulated Bioactive in Yeast (inactivated yeast; 100 mM PBS, pH = 6.5, Conventional Diffusion, saturated solution, 35% v/v ethanol): 0.064 mg/g | Mass of Encapsulated Bioactive in Yeast (inactivated yeast; 100 mM PBS, pH = 6.5, HPP (200 MPa), saturated solution, 35% v/v ethanol): 0.242 mg/g | Mass of Encapsulated Bioactive in Yeast (inactivated yeast; 100 mM PBS, pH = 6.5, Vacuum Infusion, saturated solution, 35% v/v ethanol): 0.305 mg/g | Mass of Encapsulated Bioactive in Yeast (inactivated yeast; 2% Tween 20 in 100 mM Tris Buffer, pH = 8, Conventional Diffusion, saturated solution, 35% v/v ethanol): 0.292 mg/g | Mass of Encapsulated Bioactive in Yeast (inactivated yeast; 2% Tween 20 in 100 mM Tris Buffer, pH = 8, HPP (200 MPa), saturated solution, 35% v/v ethanol): 0.415 mg/g | Mass of Encapsulated Bioactive in Yeast (inactivated yeast; 2% Tween 20 in 100 mM Tris Buffer, pH = 8, Vacuum Infusion, saturated solution, 35% v/v ethanol): 0.483 mg/g | Mass of Encapsulated Bioactive in Yeast (inactivated yeast; Commercial Baker's Yeast, vacuum infused, 35% ethanol): 0.392 mg/g | Mass of Encapsulated Bioactive in Yeast (inactivated yeast; Conventional Diffusion, Single Loading): 0.134 mg/g | Mass of Encapsulated Bioactive in Yeast (inactivated yeast; S. Cerevisiae (68-115), lipogenesis Induced, vacuum infused, 35% ethanol): 0.260 mg/g | Mass of Encapsulated Bioactive in Yeast (inactivated yeast; S. Cerevisiae (68-115), lipogenesis Suppressed, vacuum infused, 35% ethanol): 0.238 mg/g | Mass of Encapsulated Bioactive in Yeast (inactivated yeast; Vacuum, Dual Loading (curcumin and fisetin added together)): 0.442 mg/g | Mass of Encapsulated Bioactive in Algae (Chlorella minutissima): 0.184 mg/g | Mass of Encapsulated Bioactive in Algae (Chlorella sorokiniana): 0.355 mg/g | Mass of Encapsulated Bioactive in Bacteria (E. coli (BL21)): 0.489 mg/g | Mass of Encapsulated Bioactive in Bacteria (L. casei (S1)): 1.041 mg/g | integrity of the compound in tissue (porcine mouth mucosa; after 12 h): remained intact
Compound: COc1cc(/C=C/C(=O)CC(=O)/C=C/c2ccc(O)c(OC)c2)ccc1O [Curcumin, curcumin]
diffusion into mouth mucosa tissue (porcine mouth mucosa; yeast microcapsules loaded with curcumin, topically applied): diffused into mouth mucosa tissue with a strong time-dependent manner
